The text below walks through data of US9271967B2, “1,2,4-triazolo[4,3-a]pyridine derivatives and their use as positive allosteric modulators of mGluR2 receptors” (Janssen Pharmaceuticals, Inc., priority 2010, dated 2016).

One data set concerns the target T1, human mGluR2 receptor (Homo sapiens, UniProt Q14416).
T1 construct: expressed in transfected cells; host or cells: CHO cells
Briefly: [35S]GTPγS binding assay (PAM assay). The class given is biochemical. As to conditions: in presence of glutamate at EC20; for Emax / GTPγS-hmGluR2 PAM Emax: maximal % effect relative to the control glutamate response; for Emax: read-out: GTPγS-hmGluR2 PAM Emax; for EC50: membranes of CHO cells transfected with human mGluR2, -log EC50 in M, read-out: GTPγS-hmGluR2 PAM pEC50 (converted). The method, then:
The [^35S]GTPγS binding assay is a functional membrane-based assay used to study G-protein coupled receptor (GPCR) function whereby incorporation of a non-hydrolysable form of GTP, [^35S]GTPγS (guanosine 5′-triphosphate, labelled with […] ^35S), is measured. The G-protein α subunit catalyzes the exchange of guanosine 5′-diphosphate (GDP) by guanosine triphosphate (GTP) and on activation of the GPCR by an agonist, [^35S]GTPγS, becomes incorporated and cannot be cleaved to continue the exchange cycle (Harper (1998) Current Protocols in Pharmacology 2.6.1-10, John Wiley & Sons, Inc.). […] Here we describe the use of the [^35S]GTPγS binding assay using membranes from cells transfected with the human mGluR2 receptor and adapted from Schaffhauser et al. ((2003) Molecular Pharmacology 4:798-810) for the detection of the positive allosteric modulation (PAM) properties of the compounds of this invention.
CHO-cells were cultured to pre-confluence and stimulated with 5 mM butyrate for 24 h. Cells were then collected by scraping in PBS and cell suspension was centrifuged (10 min at 4000 RPM in benchtop centrifuge). Supernatant was discarded and pellet gently resuspended in 50 mM Tris-HCl, pH 7.4 by mixing with a vortex and pipetting up and down. The suspension was centrifuged at 16,000 RPM (Sorvall RC-5C plus rotor SS-34) for 10 minutes and the supernatant discarded. The pellet was homogenized in 5 mM Tris-HCl, pH 7.4 using an ultra-turrax homogenizer and centrifuged again (18,000 RPM, 20 min, 4° C.). The final pellet was resuspended in 50 mM Tris-HCl, pH 7.4 and stored at −80° C. in appropriate aliquots before use. Protein concentration was determined by the Bradford method (Bio-Rad, USA) with bovine serum albumin as standard.
Measurement of mGluR2 positive allosteric modulatory activity of test compounds was performed as follows. Test compounds and glutamate were diluted in assay buffer containing 10 mM HEPES acid, 10 mM HEPES salt, pH 7.4, 100 mM NaCl, 3 mM MgCl2 and 10 μM GDP. Human mGlu2 receptor-containing membranes were thawed on ice and diluted in assay buffer supplemented with 14 μg/ml saponin. Membranes were pre-incubated with compound alone or together with a predefined (˜EC20) concentration of glutamate (PAM assay) for 30 min at 30° C. After addition of [^35S]GTPγS (f.c. 0.1 nM), assay mixtures were shaken briefly and further incubated to allow [^35S]GTPγS incorporation on activation (30 minutes, 30° C.). Final assay mixtures contained 7 μg of membrane protein in 10 mM HEPES acid, 10 mM HEPES salt, pH 7.4, 100 mM NaCl, 3 mM MgCl2, 10 μM GDP and 10 μg/ml saponin. Total reaction volume was 200 μl. Reactions were terminated by rapid filtration through Unifilter-96 GF/B plates (Perkin Elmer, Mass., USA) using a 96-well filtermate universal harvester. Filters were washed 6 times with ice-cold 10 mM NaH2PO4/10 mM Na2HPO4, pH 7.4. Filters were then air-dried, and 40 μl of liquid scintillation cocktail (Microscint-O) was added to each well. Membrane-bound radioactivity was counted in a Microplate Scintillation and Luminescence Counter from Perkin Elmer.
The concentration-response curves of representative compounds of the present invention—obtained in the presence of EC20 of mGluR2 agonist glutamate to determine positive allosteric modulation (PAM)—were generated using the Lexis software interface (developed at J&J). Data were calculated as % of the control glutamate response, defined as the maximal response that is generated upon addition of glutamate alone. Sigmoid concentration-response curves plotting these percentages versus the log concentration of the test compound were analyzed using non-linear regression analysis. The concentration producing half-maximal effect is then calculated as EC50. The pEC50 values below were calculated as the −log EC50, when the EC50 is expressed in M. Emax is defined as relative maximal effect (i.e. maximal % effect relative to the control glutamate response).

T1 sequence (Q14416 19-872): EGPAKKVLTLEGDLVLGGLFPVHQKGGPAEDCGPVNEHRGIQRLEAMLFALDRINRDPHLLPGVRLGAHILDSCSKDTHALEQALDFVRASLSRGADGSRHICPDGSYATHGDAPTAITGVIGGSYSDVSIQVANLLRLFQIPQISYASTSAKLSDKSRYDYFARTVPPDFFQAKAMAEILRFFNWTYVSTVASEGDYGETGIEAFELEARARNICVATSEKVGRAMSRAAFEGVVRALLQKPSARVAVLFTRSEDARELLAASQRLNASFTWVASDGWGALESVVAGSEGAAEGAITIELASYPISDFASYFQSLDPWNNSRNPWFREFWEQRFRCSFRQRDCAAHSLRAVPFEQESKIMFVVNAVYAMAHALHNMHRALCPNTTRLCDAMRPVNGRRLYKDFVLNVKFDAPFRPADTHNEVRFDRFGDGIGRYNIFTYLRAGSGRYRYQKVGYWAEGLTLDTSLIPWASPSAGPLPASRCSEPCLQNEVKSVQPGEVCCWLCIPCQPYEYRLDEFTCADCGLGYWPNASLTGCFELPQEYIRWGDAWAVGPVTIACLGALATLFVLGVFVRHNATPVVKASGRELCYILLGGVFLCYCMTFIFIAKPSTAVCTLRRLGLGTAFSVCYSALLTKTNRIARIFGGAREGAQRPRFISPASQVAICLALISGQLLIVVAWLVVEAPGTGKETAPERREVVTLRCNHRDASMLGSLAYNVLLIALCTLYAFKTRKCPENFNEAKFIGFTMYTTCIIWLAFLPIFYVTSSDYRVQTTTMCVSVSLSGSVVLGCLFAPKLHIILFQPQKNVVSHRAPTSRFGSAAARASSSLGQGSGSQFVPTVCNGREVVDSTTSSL

For orientation: Emax means the greatest response seen or fitted, relative to the assay's reference. Take `CCOCc1nnc2c(C(F)(F)F)c(CN[C@H]3CC[C@H](c4ccccc4)CC3)ccn12` [Co. no. 11, 3-(Ethoxymethyl)-N-(trans-4-phenylcyclohexyl)-8-(trifluoromethyl)-1,2,4-triazolo-[4,3-a]pyridine-7-methanamine]: the Emax at human mGluR2 receptor came out at 278%.
In general, melting point refers to the temperature, or range, at which the solid turns liquid. `FC(F)(F)c1c(CN[C@H]2CC[C@H](c3ccccc3)CC2)ccn2c(CC3CC3)nnc12` [Co. no. 3, 3-(Cyclopropylmethyl)-N-(trans-4-phenylcyclohexyl)-8-(trifluoromethyl)-1,2,4-triazolo[4,3-a]pyridine-7-methanamine] showed a melting point of 157.4 °C. Besides, at human mGluR2 receptor, the maximal response (Emax) was 235% and the EC50 is 234 nM.
Consider `FC(F)(F)c1c(CNC2Cc3ccccc3C2)ccn2c(CC3CC3)nnc12` [Co. no. 6, 3-(Cyclopropylmethyl)-N-(2,3-dihydro-1H-inden-2-yl)-8-(trifluoromethyl)-1,2,4-triazolo[4,3-a]pyridine-7-methanamine], for which, at human mGluR2 receptor, the Emax was determined as 227% and the EC50 is 794 nM.
Take `FC(F)(F)c1c(CNC2COCC2c2ccccc2)ccn2c(CC3CC3)nnc12` (stereo not drawn) [Co. no. 31, Cis-N-{[3-(Cyclopropylmethyl)-8-(trifluoromethyl) [1,2,4]triazolo[4,3-a]pyridin-7-yl]methyl}-4-phenyltetrahydrofuran-3-amine]: at human mGluR2 receptor, the Emax came out at 201%.
Turning to `FC(F)(F)c1c(CNC2CCOc3ccccc32)ccn2c(CC3CC3)nnc12` (single isomer, unassigned) [Co. no. 28b, (4*S)—N-{[3-(Cyclopropylmethyl)-8-(trifluoromethyl) [1,2,4]triazolo[4,3-a]pyridin-7-yl]methyl}-3,4-dihydro-2H-chromen-4-amine], on human mGluR2 receptor (listed as 28b), the “GTPγS-hmGluR2 PAM Emax” value is listed as 285%. Moreover, the EC50 on human mGluR2 receptor is 575 nM.
In the case of `Clc1c(CN[C@H]2CC[C@@H](c3ccccc3)CC2)ccn2c(CC3CC3)nnc12` [Co. no. 12, 8-Chloro-3-(cyclopropylmethyl)-N-(cis-4-phenylcyclohexyl)-1,2,4-triazolo-[4,3-a]pyridine-7-methanamine], on human mGluR2 receptor, the Emax stood at 257% and the EC50 was 589 nM.
As for `FC(F)(F)c1c(CNC2CCOc3ccccc32)ccn2c(CC3CC3)nnc12` (single isomer, unassigned) [Co. no. 28a, (4*R)—N-{[3-(Cyclopropylmethyl)-8-(trifluoromethyl) [1,2,4]triazolo[4,3-a]pyridin-7-yl]methyl}-3,4-dihydro-2H-chromen-4-amine], the “GTPγS-hmGluR2 PAM Emax” value at human mGluR2 receptor (listed as 28a) was determined as 257%. Moreover, at human mGluR2 receptor, the EC50 was 794 nM.
Regarding `Clc1c(CN[C@H]2CC[C@H](c3ccccc3)CC2)ccn2c(CC3CC3)nnc12` [Co. no. 13, 8-Chloro-3-(cyclopropylmethyl)-N-(trans-4-phenylcyclohexyl)-1,2,4-triazolo-[4,3-a]pyridine-7-methanamine], the Emax on human mGluR2 receptor was 243%.
Compound `FC(F)(F)c1c(CN[C@@H]2CCO[C@@H](c3ccccc3)C2)ccn2c(CC3CC3)nnc12` [Co. no. 30, (2R,4R)—N-{[3-(Cyclopropylmethyl)-8-(trifluoromethyl)[1,2,4]triazolo[4,3-a]pyridin-7-yl]methyl}-2-phenyltetrahydro-2H-pyran-4-amine] had a melting point of 139.6 °C. In addition, on human mGluR2 receptor, the maximal response (Emax) came to 239% and the EC50 was 1200 nM.
As to `CCc1nnc2c(C(F)(F)F)c(CN[C@H]3CC[C@H](c4ccccc4)CC3)ccn12` [Co. no. 4, 3-Ethyl-N-(trans-4-phenylcyclohexyl)-8-(trifluoromethyl)-1,2,4-triazolo[4,3-a]-pyridine-7-methanamine], on human mGluR2 receptor, the Emax is 197% and the EC50 is 1200 nM.
For `Fc1ccc(N2CCC(NCc3ccn4c(CC5CC5)nnc4c3C(F)(F)F)CC2)c(F)c1` [Co. no. 2, 3-(Cyclopropylmethyl)-N-[1-(2,4-difluorophenyl)-4-piperidinyl]-8-(trifluoromethyl)-1,2,4-triazolo[4,3-a]pyridine-7-methanamine], in that order: 321% and 617 nM.
For `CCc1nnc2c(C(F)(F)F)c(CN[C@H]3CC[C@@H](c4ccccc4)CC3)ccn12` [Co. no. 8, 3-Ethyl-N-(cis-4-phenylcyclohexyl)-8-(trifluoromethyl)-1,2,4-triazolo[4,3-a]pyridine-7-methanamine], in that order: 228% and 324 nM.
For `FC(F)(F)c1c(CNC2CC2c2ccccc2)ccn2c(CC3CC3)nnc12` (stereo not drawn) [Co. no. 27, Trans-N-{[3-(Cyclopropylmethyl)-8-(trifluoromethyl)[1,2,4]triazolo[4,3-a]pyridin-7-yl]methyl}-2-phenylcyclopropanamine], in that order: 267% and 871 nM.
Take `CCc1nnc2c(C(F)(F)F)c(CN[C@H]3CC[C@@H](c4ccc(F)cc4F)CC3)ccn12` [Co. no. 9, N-[Cis-4-(2,4-difluorophenyl)cyclohexyl]-3-ethyl-8-(trifluoromethyl)-1,2,4-triazolo[4,3-a]pyridine-7-methanamine]: on human mGluR2 receptor, the maximal effect (Emax) was found to be 209% and the EC50 was 209 nM.
In the case of `FC(F)(F)c1c(CN[C@H]2CCO[C@H](c3ccccc3)C2)ccn2c(CC3CC3)nnc12` [Co. no. 29, (2S,4S)—N-{[3-(Cyclopropylmethyl)-8-(trifluoromethyl) [1,2,4]triazolo[4,3-a]pyridin-7-yl]methyl}-2-phenyltetrahydro-2H-pyran-4-amine], the melting point came out at 95.8 °C. Also, on human mGluR2 receptor, the Emax was 209%.
Consider `FC(F)(F)c1c(CN[C@H]2CC[C@@H](c3ccccc3)CC2)ccn2c(CC3CC3)nnc12` [Co. no. 7, 3-(Cyclopropylmethyl)-N-(cis-4-phenylcyclohexyl)-8-(trifluoromethyl)-1,2,4-triazolo-[4,3-a]pyridine-7-methanamine], for which, at human mGluR2 receptor, the Emax is 263% and the EC50 was 42.7 nM.
For `CCOCc1nnc2c(C(F)(F)F)c(CN[C@H]3CC[C@@H](c4ccccc4)CC3)ccn12` [Co. no. 10, 3-(Ethoxymethyl)-N-(cis-4-phenylcyclohexyl)-8-(trifluoromethyl)-1,2,4-triazolo-[4,3-a]pyridine-7-methanamine], at human mGluR2 receptor, the Emax was determined as 242% and the EC50 was 170 nM.
